Experimental data as given in patent US8569229B2, “Compositions and methods which modulate G-protein signaling for the treatment of inflammatory disorders such as asthma and allergic conjunctivitis” (The Children's Hospital of Philadelphia, priority 2008, dated 2013).
“Also recorded” adds a separate entry of the source. Numbered stars: 1 amine (or outer) side, 2 acyl side, 3 side chain; on linkers, the order of the positions; unused ones are H or OH. Bridge positions count the residues as written; N and C are the ends. Square brackets hold non-standard residues; d marks the D form. Ends that are not written are not given here. Peptide text beside a SMILES is read from it. I, II: the chains in the order shown. Actinocin(9to1) = Cc1c2oc3c(C)ccc(C(=O)[*:1])c3nc-2c(C(=O)[*:2])c(N)c1=O; NMeV = CN[C@H](C(=O)O)C(C)C; Sar = CNCC(=O)O

Legend:
ERK1/2 = test: Immunoblot analysis of ERK1/2 phosphorylation in ASM cells; type: cell-based, human; settings: for effect on PGE2-induced phosphorylation of ERK1/2: PGE2 100 nM, 30 min; for effect on isoproterenol (β2AR agonist)-induced phosphorylation of ERK1/2: isoproterenol 10 μM, 20 min
Description: (§1) Detection of PDE4D5 mRNA transcripts: Total RNA was extracted from the cultured ASM cells using the TRIzol method (Invitrogen), and cDNAs were isolated by RT-PCR using the SuperScript First Strand Synthesis System kit from Invitrogen, with the following oligonucleotide primer sets (Integrated DNA Technologies): for PDE4D5, 5′-[…]-3′ (forward; SEQ ID NO: 2) and 5′-[…]-3′ (reverse; SEQ ID NO: 3); and for β-actin, 5′-[…]-3′ (forward; SEQ ID NO: 4) and 5′-[…]-3′ (reverse; SEQ ID NO: 5). The reaction volume was 20 μl and cycling conditions used were 35 cycles of 30 sec denaturation at 95° C., followed by 30 sec annealing at 60° C. and elongation at 72° C. for 30 sec. Ex-Tag (Takara Biotechnology) was used as DNA polymerase. […] Following protein extraction and the addition of gel-loading buffer, the extracts were loaded on a 10% SDS-PAGE gel for immunoblotting after transfer to a PVDF membrane. The membranes were then incubated overnight with monoclonal mouse anti-human primary antibodies directed against phospho-CREB and -ATF1, phospho-ERK1/2, or α-actin, and levels were detected by ECL after a 1-hr incubation with a 1:2,000 dilution of HRP-conjugated rabbit anti-mouse secondary antibody, followed by exposure to autoradiography film. The protein band intensities were quantified by densitometry. siRNA-mediated knockdown of PKA: ASM cells were seeded into 6-well plates and, at ˜40% confluency, the medium was replaced with the reduced serum-containing medium, Opti-MEM (Invitrogen). The cells were then transfected twice during a 24-hr interval with two pools of three siRNA duplexes, each pool targeted against the human PKAα or PKAγ catalytic subunits (Santa Cruz Biotechnology; sc-36240 and sc-36236, respectively), or with a non-targeted control (scrambled) siRNA duplex, using Oligofectamine (Invitrogen) as the transfection agent. The pools of siRNAs were applied to each well at a final concentration of 100 nM for each siRNA preparation. […] Transfection of ASM cells with adeno-βARK-ct: Adenovirus (adeno)-βARK-ct, an adenovirus vector encoding the βARK1 carboxyl-terminal domain which blocks Gβγ signaling (25,26), and adeno-β-gal, an adenovirus vector expressing lacZ as a negative control, were constructed using the AdenoX adenovirus construction kit (BD-Clontech). Recombinant plaques were isolated and propagated in HEK293 cells (Invitrogen), with viral purification using the cesium chloride gradient method, and viral titer detected by plaque assay. The ASM cells were transfected with either of the adenoviral vectors at a multiplicity of infection (MOI) of 100, and experiments were conducted at 24 hr following adenoviral tranfections. Pharmacodynamic studies of constrictor and relaxation responsiveness in rabbit ASM tissues: Following initial sedation and subsequent general anesthesia with intramuscular injections of xylazine (10 mg/kg) and ketamine (50 mg/kg), respectively, rabbits were sacrificed with an intravenously administered overdose of sodium pentobarbital (100 mg/kg). As described previously (16), the tracheae were excised via open thoracotomy, the loose connective tissue and epithelium were scraped and removed, and the tracheae were divided into 8 ring segments, each of 6-8 mm in length. […] After these incubations, the tissues were placed in organ baths containing modified Krebs-Ringer solution aerated with 5% CO2 in oxygen (pH of 7.35-7.40), and attached to force transducers to continuously monitor isometric tension. […] The constrictor and relaxation dose-response curves were analyzed with respect to each tissue's maximal isometric contractile force (Tmax) to ACh and maximal relaxation response (Rmax) to isoproterenol from the initial level of active cholinergic contraction. Statistical analyses: Results are expressed as mean±SE values. Comparisons between groups were made using the Student's t-test (two-tailed) or ANOVA with Tukey's post-test analysis, where appropriate.

human ASM cells [1] = test: Assay of cAMP PDE activity in ASM cell lysates; type: cell-based; settings: for effect of pretreatment on PGE2-induced increase in PDE activity: PGE2 100 nM x 24 hr, peptides 30 μM (Example III); for effect of pretreatment on PGE2- and forskolin-induced increases in PDE activity: PGE2 or forskolin x 24 hr (100 μM in text, 100 nM in legends); for effect of pretreatment on salmeterol- and isoproterenol-induced increase in PDE activity: salmeterol or isoproterenol 10 μM x 24 hr
human ASM cells [2] = test: Assay of cAMP PDE activity in ASM cell lysates; type: cell-based; settings: no cAMP-elevating agent
Method: Assay of cAMP PDE activity: Levels of cAMP PDE activity were assayed in ASM cell lysates using a colorimetric, non-radioactive enzymatic assay kit from Biomol, as per the manufacture's protocol. PDE activity was determined following exposure of ASM cells for 24 hr to either vehicle alone (control), PGE2 (100 μM), or forskolin (100 μM) in the absence and presence of pretreatment with rolipram (10 μM), cycloheximide (100 μM), actinomycin D (4 μM), or H89 (10 μM).
In each case, the measured levels of PDE activity were standardized to the protein content in the cell extracts.

PDE4D5 mRNA = test: Detection of PDE4D5 mRNA transcripts by RT-PCR in ASM cells; type: cell-based, human; settings: 6 hr; for effect of pretreatment on PGE2-induced upregulated PDE4D5 mRNA expression: PGE2 100 nM; for effect of pretreatment on β2AR agonist (isoproterenol)-induced upregulated PDE4D5 mRNA expression: isoproterenol 10 μM
Description: as §1

rabbit ASM tissues [3] = test: Relaxation responsiveness to isoproterenol in isolated rabbit ASM tissues half-maximally contracted with ACh
Description: as §1

rabbit ASM tissues [4] = test: Constrictor responsiveness to acetylcholine (ACh) in isolated rabbit ASM tissues, isometric tension in organ bath
Description: as §1

CREB/ATF1 = test: Immunoblot analysis of CREB/ATF1 phosphorylation in ASM cells; type: cell-based, human; settings: PGE2 100 nM, 30 min
Description: as §1

[5] = vehicle-exposed control tissues

Compound	effect on PGE2-induced phosphorylation of ERK1/2 (ERK1/2)	effect on isoproterenol (β2AR agonist)-induced phosphorylation of ERK1/2 (ERK1/2)	effect of pretreatment on PGE2-induced increase in PDE activity (human ASM cells [1])	effect of pretreatment on PGE2- and forskolin-induced increases in PDE activity (human ASM cells [1])	effect of pretreatment on salmeterol- and isoproterenol-induced increase in PDE activity (human ASM cells [1])	effect of pretreatment on PGE2-induced upregulated PDE4D5 mRNA expression (PDE4D5 mRNA)	effect of pretreatment on β2AR agonist (isoproterenol)-induced upregulated PDE4D5 mRNA expression (PDE4D5 mRNA)	effect on PGE2-induced phosphorylation of CREB/ATF1 (CREB/ATF1)	further results
COC(=O)[C@H](CC(C)C)NC(=O)c1ccc(NC[C@@H](N)CS)cc1-c1cccc2ccccc12 [GGTI-298]	did not exhibit attenuated; also recorded: no effect	did not exhibit attenuated; also recorded: no effect	–	–	–	–	–	–	–
O=C1Nc2ccc(I)cc2/C1=C/c1cc(Br)c(O)c(Br)c1 [GW5074]	completely ablated; also recorded: prevents	completely abrogated; also recorded: prevents	–	–	–	–	–	–	–
MPS- Gαi2 (AAVALLPAVLLALLAKNNLKDCGLF; also: MPS attached) [Gαi2 blocking peptide]	–	–	only a partial inhibitory effect	–	–	–	–	–	effect of pretreatment on PGE2-induced increase in PDE activity (human ASM cells [1]; listed as anti-Gαi2 inhibitory peptide): only exerts a partial inhibitory effect
Cc1c2oc3c(C)ccc(C(=O)N[C@@H]4C(=O)N[C@H](C(C)C)C(=O)N5CCC[C@H]5C(=O)N(C)CC(=O)N(C)[C@@H](C(C)C)C(=O)O[C@@H]4C)c3nc-2c(C(=O)N[C@@H]2C(=O)N[C@H](C(C)C)C(=O)N3CCC[C@H]3C(=O)N(C)CC(=O)N(C)[C@@H](C(C)C)C(=O)O[C@@H]2C)c(N)c1=O [actinomycin D] (I: T[dV]P[Sar][NMeV] / II: T[dV]P[Sar][NMeV]; ester I:1-I:C, II:1-II:C; linker I:N-II:N via Actinocin(9to1))	–	–	–	completely ablated	completely ablated	–	–	–	effect of the agent alone on basal PDE activity (human ASM cells [2]): neither actinomycin D nor cycloheximide alone significantly affected
pertussis toxin [PTX]	largely prevented; also recorded: ablated	–	completely ablated	completely ablated	completely abrogated; also recorded: ablated	markedly inhibited; also recorded: ablated	prevented; also recorded: ablated	largely prevented; also recorded: ablated	effect of pretreatment on PGE2-induced impaired relaxation to isoproterenol (rabbit ASM tissues [3]; PGE2 100 nM x 24 hr): abrogated; effect of the agent alone on relaxation responses to isoproterenol (rabbit ASM tissues [3]; [5]): no significant effect; effect of pretreatment on PGE2-induced increase in constrictor responsiveness to ACh (rabbit ASM tissues [4]; PGE2 100 nM x 24 hr): abrogated; effect of the agent alone on constrictor responses to ACh (rabbit ASM tissues [4]; [5]): no significant effect
CN(C)S(=O)(=O)c1ccc2c(c1)/C(=C/c1cc3c([nH]1)CCCC3)C(=O)N2 [SU6656]	largely prevented; also recorded: ablated	–	–	–	–	ablated	prevented; also recorded: ablated	largely prevented; also recorded: ablated	effect of pretreatment on PGE2-induced upregulated PDE4D5 mRNA expression (PDE4D5 mRNA; listed as Src inhibitor): markedly inhibited
